Data: patent US8586611B2 (priority 2005, dated 2013)

Experiments:
Format in all cases: in vivo
Phytophthora infestans [1] = test: whole plant or invertebrate; conditions: tomato late blight
[2] = system: Pseudoperonospora cubensis; test: Test A: cucumber downy mildew, spray the day before inoculation (disease rating, 100 = 100% disease control); conditions: spray the day before inoculation, compounds without asterisk (not 40 or 10 ppm)
Description: The test compounds were first dissolved in acetone in an amount equal to 3% of the final volume and then suspended at the desired concentration (in ppm) in acetone and purified water (50/50 mix by volume) containing 250 ppm of the surfactant Trem® 014 (polyhydric alcohol esters). The resulting test suspensions were then used in tests A-E. Spraying a 200 ppm test suspension to the point of run-off on the test plants was the equivalent of a rate of 500 g/ha.
The test suspension was sprayed to the point of run-off on cucumber seedlings. The following day the seedlings were inoculated with a spore suspension of Pseudoperonospora cubensis (the causal agent of cucumber downy mildew) and incubated in a saturated atmosphere at 20° C. for 24 h, and then moved to a growth chamber at 20° C. for 6 days, after which disease ratings were made.
Results for Tests A-F are given in Table A. In the table, a rating of 100 indicates 100% disease control and a rating of 0 indicates no disease control (relative to the controls). A dash (-) indicates no test results.

Plasmopara viticola = test: Test B: grape downy mildew, spray 24 h after inoculation (disease rating, 100 = 100% disease control)
In short: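 Grape seedlings were inoculated with Plasmopara viticola and held 24 h saturated at 20 °C, then sprayed to run-off with compound suspension (acetone/water with 250 ppm Trem 014; 200 ppm ≈ 500 g/ha). After 5 days at 20 °C and 24 h saturation, disease was rated from 0 to 100% control versus untreated.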

[3] = system: Erysiphe graminis f. sp. tritici; test: Test E: wheat powdery mildew, spray the day before inoculation (disease rating, 100 = 100% disease control)
In short: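 Wheat seedlings sprayed to run-off with compound suspended in acetone/water 50/50 with 250 ppm Trem 014 (200 ppm equivalent to 500 g/ha); inoculated next day with Erysiphe graminis f. sp. tritici spore dust. Kept 7 days at 20° C, then rated 0–100% disease control versus controls.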

Phytophthora infestans [4] = test: whole plant or invertebrate; conditions: tomato late blight; remark: listed apart in the source
[5] = system: Pseudoperonospora cubensis; test: Test F: cucumber downy mildew, DMSO/acetone/water test suspension, spray the day before inoculation (disease rating, 100 = 100% disease control)
In short: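 Compounds in DMSO (4% of final volume) suspended in 30/70 acetone/water and sprayed on cucumber seedlings; 250 ppm corresponds to 250 g/ha. Spore inoculation the next day, 24 h saturated humidity at 20° C., then 6 days at 20° C. Rating 0–100 is disease control relative to controls.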

[6] = spray the day before inoculation, compounds without asterisk (not 40 or 10 ppm)
[7] = spray 24 h after inoculation, compounds without asterisk (not 40 or 10 ppm)
[8] = spray 17 h after inoculation, compounds without asterisk (not 40 or 10 ppm)
[9] = DMSO/acetone/water suspension, spray the day before inoculation, compounds without asterisk
[10] = sprayed 17 h after inoculation, unmarked compounds (no asterisk, not 40 or 10 ppm)
[11] = sprayed the day before inoculation, unmarked compounds (no asterisk, not 40 or 10 ppm)
[12] = DMSO/acetone/water test suspension, sprayed the day before inoculation, unmarked compounds (no asterisk)
[13] = sprayed 24 h after inoculation, unmarked compounds (no asterisk, not 40 or 10 ppm)
[14] = sprayed the day before inoculation, 7 days at 20° C., unmarked compounds (no asterisk, not 40 or 10 ppm)

Compound	Test C disease rating (100 = 100% disease control, 0 = no disease control) (Phytophthora infestans [1]; [6]) [%]	Test A disease rating (100 = 100% disease control, 0 = no disease control) [2] [%]	Test B disease rating (100 = 100% disease control, 0 = no disease control) (Plasmopara viticola; [7]) [%]	Test E disease rating (100 = 100% disease control, 0 = no disease control) [3, 6] [%]	Test D disease rating (100 = 100% disease control, 0 = no disease control) (Phytophthora infestans [4]; [8]) [%]	Test F disease rating (100 = 100% disease control, 0 = no disease control) [5, 9] [%]	Test D disease rating (100 = 100% disease control, 0 = no disease control) (Phytophthora infestans [4]; [10])	Test C disease rating (100 = 100% disease control, 0 = no disease control) (Phytophthora infestans [1]; [11])	Test F disease rating (100 = 100% disease control, 0 = no disease control) [5, 12]	Test B disease rating (100 = 100% disease control, 0 = no disease control) (Plasmopara viticola; [13])	Test E disease rating (100 = 100% disease control, 0 = no disease control) [3, 14]
2-[1-[(2,5-dichlorophenyl)acetyl]-4-piperidinyl]-N-methyl-N-[(1R)-1-phenylpropyl]-4-thiazolecarboxamide [Compound 110]	0	0	53	21							
2-[1-[(2,5-dimethylphenyl)acetyl]-4-piperidinyl]-N-methyl-N-[(1R)-1,2,3,4-tetrahydro-1-naphthalenyl]-4-oxazolecarboxamide [Compound 153]	0	82	28	0							
2-[1-[(2,5-dimethylphenyl)acetyl]-4-piperidinyl]-N-methyl-N-[(1R)-1-phenylpropyl]-4-thiazolecarboxamide [Compound 58]	56	0	20	0							
2-[1-[(3,5-dichloro-1H-pyrazol-1-yl)acetyl]-4-piperidinyl]-N-methyl-N-[(1R)-1,2,3,4-tetrahydro-1-naphthalenyl]-4-thiazolecarboxamide [Compound 238]	0	0	6	0							
2-[1-[[3,5-bis(trifluoromethyl)-1H-pyrazol-1-yl]acetyl]-4-piperidinyl]-N-methyl-N-[(1R)-1,2,3,4-tetrahydro-1-naphthalenyl]-4-thiazolecarboxamide [Compound 210]	0	0	6	0							
2-[1-[[5-chloro-3-(trifluoromethyl)-1H-pyrazol-1-yl]acetyl]-4-piperidinyl]-N-methyl-N-[(1R)-1,2,3,4-tetrahydro-1-naphthalenyl]-4-thiazolecarboxamide [Compound 249]	0	0	0	0							
2-[4-[(2,5-dimethylphenyl)acetyl]-1-piperazinyl]-N-methyl-N-[(1R)-1-phenylethyl]-5-thiazolecarboxamide [Compound 74]	0	0	14	21							
C[C@H](c1ccccc1)N(C)C(=O)c1csc(C2CCN(C(=O)Cc3ccc(Cl)cc3Cl)CC2)n1 [compound 6]	0	0	28	41							
C[C@H](c1ccccc1)N(C)C(=O)c1csc(C2CCN(C(=O)Cc3cccc(S(C)(=O)=O)c3)CC2)n1 [compound 31]	0	0	0	0							
C[C@H](c1ccccc1)N(C)C(=O)c1csc(C2CCN(C(=O)Cc3ccc(F)c(C(F)(F)F)c3)CC2)n1 [compound 34]	31	85	48	0							
C[C@H](c1ccccc1)N(C)C(=O)c1csc(C2CCN(C(=O)Cc3cc(F)cc(F)c3)CC2)n1 [compound 37]	80	85	23	87							
C[C@H](c1ccccc1)N(C)C(=O)c1csc(C2CCN(C(=O)Cc3cc(F)cc(C(F)(F)F)c3)CC2)n1 [compound 40]	60	98	76	0							
C[C@H](c1ccccc1)N(C)C(=O)c1csc(C2CCN(C(=O)Cc3cccc(C(F)(F)F)c3F)CC2)n1 [compound 42]	100	99	31	21							
Cc1cc(C)cc(CC(=O)N2CCC(c3nc(C(=O)N(C)[C@H](C)c4ccccc4)cs3)CC2)c1 [compound 43]	100	100	83	21							
C[C@H](c1ccccc1)N(C)C(=O)c1csc(C2CCN(C(=O)Cc3ccccc3OC(F)(F)F)CC2)n1 [compound 45]	98	95	70	0							
Cc1cc(C(F)(F)F)nn1CC(=O)N1CCC(c2nc(C(=O)N(C)C3CCCc4ccccc43)cs2)CC1 (stereo not drawn) [compound 187]	100		98	0	99	93					
Cc1cc(C(F)(F)F)nn1CC(=O)N1CCC(c2nc(C(=O)N(C)C3CCCc4cc(O)ccc43)cs2)CC1 (stereo not drawn) [compound 190]	100		8	0	99	93					
C[C@@H](NC(=O)c1csc(C2CCN(C(=O)Cc3cccc(Br)c3)CC2)n1)c1ccccc1C(F)(F)F [compound 275]							0	9	0	30	0
CC[C@@H](NC(=O)c1csc(C2CCN(C(=O)Cc3cccc(Br)c3)CC2)n1)c1ccccc1 [compound 278]							0	33	93	0	0
COc1ccc([C@@H](C)NC(=O)c2csc(C3CCN(C(=O)Cc4cccc(Br)c4)CC3)n2)cc1 [compound 279]							0	0	0	0	0
Cc1ccc(C)c(CC(=O)N2CCC(c3nc(C(=O)N[C@H](C)c4ccccc4)cs3)CC2)c1 [compound 283]							0	84	99	48	0
